In US20170172955A1, “Treatment of Mixed Dyslipidemia” (priority 2015, published 2017):
Like-named read-outs stand apart in the source and are kept apart here.

Legend:
CYP2C9 = CYP2C9 (Homo sapiens, UniProt P11712); experiment: biochemical
Protocol: (§1) Human livers, HLM141, HLM143, and HLM144 were selected from the University of Washington Human Liver Bank for this study. […] The actual concentrations used for each of the other probes are specified below. […] The seven isoforms and the metabolic pathway of each of the probes used to monitor specific isoform activity are listed below.
CYP2C9: The 7-hydroxylation of (S)-warfarin (4 μM). The reaction is monitored by quantitative GC/MS using 7-hydroxywarfarin-(d5-phenyl) as the internal standard.

primary rat hepatocytes = experiment: Cholesterol and triglyceride synthesis ([14C]acetate) in primary rat hepatocyte cultures; type: cell-based; conditions: for % Change in Synthesis, Cholesterol ± SEM / % Change in Synthesis, Triglyceride ± SEM: relative to vehicle cells
Protocol: At end of labeling period, cells were washed with room temperature D-PBS, 2.0 mL per well and the reaction is stopped with 1.0 mL 0.75 N HCl. Cells were scraped and transferred to 15×45 mm glass vial (1 dram size). Wells were washed with 1.0 mL of methanol and added to scraped cells, followed by the addition of 2.0 mL of chloroform. Vials were capped and vortexed for 5 seconds and centrifuged in a Beckman GS 6KR centrifuge at 3,600 rpm for 15 minutes at room temperature to separate phases. The bottom chloroform phase was transferred to new 15×45 mm glass vial, dried down in a […] evaporator at 37° C. under nitrogen gas. Vials were cooled to room temperature and samples resuspended in 130 μL of n-heptane:chloroform, 4:1 by vortexing for 5 seconds. […] Plates were dried for 30 minutes in an 80° C. gravity convection oven, cooled to room temperature, and wrapped in SaranTM Wrap. Plates were exposed overnight to phosphorimager plates, scanned on Typhoon PhosporImager (Molecular Dynamics), and analyzed using Imagequant software (Molecular Dynamics).

CYP3A4 = CYP3A4 (Homo sapiens, UniProt P08684); experiment: biochemical
Protocol: as §1
CYP3A4: The 10-hydroxylation of (R)-warfarin (0.5 mM). The reaction is monitored by quantitative GC/MS using 10-hydroxywarfarin-(d5-phenyl) as the internal standard.

CYP2C19 = CYP2C19 (Homo sapiens, UniProt P33261); experiment: biochemical
Protocol: as §1
CYP2C19: The 4′-hydroxylation of (S)-mephenytoin (50 μM). The reaction is monitored by quantitative GC/MS using mephenytoin-(d3-methyl) as the internal standard.

CYP2D6 = CYP2D6 (Homo sapiens, UniProt P10635); experiment: biochemical
Protocol: as §1
CYP2D6: The O-demethylation of dextromethorphan (5 μM). The reaction is monitored by high performance liquid chromatography (HPLC) using florescence detection.

fibrinogen = experiment: Fibrinogen levels in humans, post hoc analysis of study A4141001; type: in vivo, human; parameters: Mean Final FIBR / Mean Change FIBR: unit not given here; conditions: for Change in Fibrinogen, Difference (Gem - Placebo): MITT; for Fibrinogen Change, Difference (Gem-placebo) / Mean % Change FIBR / Mean Change FIBR / Mean Final FIBR / Fibrinogen Change, LS Mean (SE): subjects with fibrinogen baseline >400 mg/dL
Protocol: Week 0) and the end (Visit T8, Week 8). Analyses of covariance (ANCOVA) methods used in the original study A4141001 were again utilized in these analyses. For fibrinogen, baseline was defined as the last pretreatment visit, and endpoint was the last visit up to and including the day after last dose of medication. The least-squares means and p-values for change from baseline in fibrinogen were calculated using an ANCOVA model with the effects of baseline lipid value and treatment. Also, medians and p-values for percent change from baseline. […] This, consequently, was the definition for the modified intent-to treat (MITT) population.

CYP2A6 = target: T1, CYP2A6 (Homo sapiens, UniProt P11509); experiment: biochemical
T1 sequence (P11509 1-494): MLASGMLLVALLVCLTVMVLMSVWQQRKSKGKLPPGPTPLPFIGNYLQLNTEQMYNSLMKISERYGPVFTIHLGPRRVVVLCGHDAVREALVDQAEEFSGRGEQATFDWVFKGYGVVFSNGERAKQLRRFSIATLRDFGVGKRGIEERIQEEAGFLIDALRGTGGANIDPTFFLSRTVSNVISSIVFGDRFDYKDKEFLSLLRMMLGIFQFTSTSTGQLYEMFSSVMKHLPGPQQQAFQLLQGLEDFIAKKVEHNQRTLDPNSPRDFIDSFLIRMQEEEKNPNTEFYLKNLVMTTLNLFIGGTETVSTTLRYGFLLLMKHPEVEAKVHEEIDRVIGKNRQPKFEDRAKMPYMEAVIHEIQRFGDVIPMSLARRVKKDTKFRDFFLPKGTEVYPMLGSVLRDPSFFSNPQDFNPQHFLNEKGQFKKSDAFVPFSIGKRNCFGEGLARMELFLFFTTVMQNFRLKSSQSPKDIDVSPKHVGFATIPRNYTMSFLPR
Protocol: as §1
CYP2A6: The 7-hydroxylation of coumarin (4 μM). The reaction is monitored by HPLC using florescence detection.

CYP2D6, sequence (P10635 whole entry): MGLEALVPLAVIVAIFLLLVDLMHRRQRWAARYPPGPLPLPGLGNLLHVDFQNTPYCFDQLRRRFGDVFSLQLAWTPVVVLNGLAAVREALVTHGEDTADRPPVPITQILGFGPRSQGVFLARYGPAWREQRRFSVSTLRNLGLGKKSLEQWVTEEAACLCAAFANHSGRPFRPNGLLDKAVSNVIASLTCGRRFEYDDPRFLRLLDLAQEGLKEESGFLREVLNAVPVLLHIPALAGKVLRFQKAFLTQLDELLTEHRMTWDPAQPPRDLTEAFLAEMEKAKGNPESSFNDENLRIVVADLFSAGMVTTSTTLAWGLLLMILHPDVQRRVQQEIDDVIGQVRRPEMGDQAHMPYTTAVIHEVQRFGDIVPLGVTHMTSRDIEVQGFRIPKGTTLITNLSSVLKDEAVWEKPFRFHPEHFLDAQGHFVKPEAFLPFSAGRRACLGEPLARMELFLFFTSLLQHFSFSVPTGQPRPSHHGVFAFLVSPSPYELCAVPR
CYP2C9, sequence (P11712 whole entry, canonical isoform): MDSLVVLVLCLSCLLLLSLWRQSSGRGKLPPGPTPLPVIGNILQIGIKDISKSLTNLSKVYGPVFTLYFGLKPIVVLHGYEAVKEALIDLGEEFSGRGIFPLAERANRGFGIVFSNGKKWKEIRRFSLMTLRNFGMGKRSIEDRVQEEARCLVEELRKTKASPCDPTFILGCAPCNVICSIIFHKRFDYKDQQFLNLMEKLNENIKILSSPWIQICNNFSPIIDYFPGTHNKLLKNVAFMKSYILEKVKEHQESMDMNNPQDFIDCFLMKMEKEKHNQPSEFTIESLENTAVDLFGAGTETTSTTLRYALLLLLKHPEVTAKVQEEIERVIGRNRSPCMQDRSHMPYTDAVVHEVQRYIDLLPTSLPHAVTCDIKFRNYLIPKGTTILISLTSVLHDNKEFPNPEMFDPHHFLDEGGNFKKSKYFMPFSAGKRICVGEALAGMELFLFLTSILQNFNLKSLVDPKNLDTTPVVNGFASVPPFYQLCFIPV
CYP3A4, sequence (P08684 whole entry): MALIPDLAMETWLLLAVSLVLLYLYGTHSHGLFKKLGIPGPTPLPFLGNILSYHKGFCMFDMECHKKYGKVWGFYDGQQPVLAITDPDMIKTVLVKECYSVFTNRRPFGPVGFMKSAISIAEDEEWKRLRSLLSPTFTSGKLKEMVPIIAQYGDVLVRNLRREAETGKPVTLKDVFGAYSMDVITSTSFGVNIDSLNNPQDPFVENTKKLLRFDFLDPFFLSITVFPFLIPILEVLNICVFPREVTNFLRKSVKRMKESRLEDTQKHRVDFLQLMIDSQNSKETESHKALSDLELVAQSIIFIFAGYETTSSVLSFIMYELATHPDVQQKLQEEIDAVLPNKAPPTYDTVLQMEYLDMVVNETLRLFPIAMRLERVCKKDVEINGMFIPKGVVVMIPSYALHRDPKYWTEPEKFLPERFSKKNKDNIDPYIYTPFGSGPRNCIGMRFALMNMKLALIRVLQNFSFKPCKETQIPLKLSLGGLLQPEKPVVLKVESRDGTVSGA
CYP2C19, sequence (P33261 whole entry): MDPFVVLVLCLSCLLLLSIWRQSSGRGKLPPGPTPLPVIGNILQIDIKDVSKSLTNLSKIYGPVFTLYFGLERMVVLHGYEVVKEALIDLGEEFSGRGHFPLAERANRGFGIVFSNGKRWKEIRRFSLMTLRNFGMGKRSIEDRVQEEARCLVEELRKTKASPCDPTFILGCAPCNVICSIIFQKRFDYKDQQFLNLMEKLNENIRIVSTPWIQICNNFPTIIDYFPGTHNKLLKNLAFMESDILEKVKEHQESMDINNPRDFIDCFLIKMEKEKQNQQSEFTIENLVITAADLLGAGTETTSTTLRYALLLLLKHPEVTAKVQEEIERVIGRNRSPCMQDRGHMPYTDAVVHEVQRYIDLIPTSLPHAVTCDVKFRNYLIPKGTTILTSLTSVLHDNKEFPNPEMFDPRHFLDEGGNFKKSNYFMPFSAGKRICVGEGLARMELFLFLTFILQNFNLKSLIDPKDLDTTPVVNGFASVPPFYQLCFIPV

CC(C)(CCCCOCCCCC(C)(C)C(=O)O)C(=O)O [Gemcabene, 6,6′-oxybis(2,2-dimethylhexanoic acid)]
IC50 (CYP2C9): > 1500 µM
IC50 (CYP2C9; human, microsomes): > 1500 µM
decrease of cholesterol synthesis (± SEM) (primary rat hepatocytes; 10 μM): 61.5±1.8%
reduction of triglyceride synthesis (primary rat hepatocytes; 10 μM): 8.9±4.5%
% Change in Synthesis, Cholesterol ± SEM (primary rat hepatocytes; 10 μM): −61.5 ± 1.8%
% Change in Synthesis, Triglyceride ± SEM (primary rat hepatocytes; 10 μM): −8.9 ± 45%^ns
decrease of cholesterol synthesis (± SEM) (primary rat hepatocytes; 30 μM): 90.0±0.8%
reduction of triglyceride synthesis (primary rat hepatocytes; 30 μM): 72.1±2.9%
% Change in Synthesis, Cholesterol ± SEM (primary rat hepatocytes; 30 μM): −90.0 ± 0.8%
% Change in Synthesis, Triglyceride ± SEM (primary rat hepatocytes; 30 μM): −72.1 ± 2.9%
IC50 (CYP3A4): > 1500 µM
IC50 (CYP3A4; human, microsomes): > 1500 µM
IC50 (CYP2C19): > 1500 µM
IC50 (CYP2C19; human, microsomes): > 1500 µM
IC50 (CYP2D6): > 1500 µM
IC50 (CYP2D6; human, microsomes): > 1500 µM
Change in Fibrinogen, Difference (Gem - Placebo) (fibrinogen; gemcabene 300 mg): −13.0
Change in Fibrinogen, Difference (Gem - Placebo) (fibrinogen; gemcabene 600 mg): −13.6
Change in Fibrinogen, Difference (Gem - Placebo) (fibrinogen; gemcabene 900 mg): −24.3
Fibrinogen Change, Difference (Gem-placebo) (fibrinogen; gemcabene 300 mg): 5.0
Mean % Change FIBR (fibrinogen; gemcabene 300 mg): 6.7%
Mean Change FIBR (fibrinogen; gemcabene 300 mg): 26.6
Mean Final FIBR (fibrinogen; gemcabene 300 mg): 454.4
Fibrinogen Change, LS Mean (SE) (fibrinogen; gemcabene 300 mg monotherapy): 26.0 (29.3)
Fibrinogen Change, Difference (Gem-placebo) (fibrinogen; gemcabene 600 mg): −62.5
Mean % Change FIBR (fibrinogen; gemcabene 600 mg): −9.3%
Mean Change FIBR (fibrinogen; gemcabene 600 mg): −41.4
Mean Final FIBR (fibrinogen; gemcabene 600 mg): 411.0
Fibrinogen Change, LS Mean (SE) (fibrinogen; gemcabene 600 mg monotherapy): −41.5 (28.9)
Fibrinogen Change, Difference (Gem-placebo) (fibrinogen; gemcabene 900 mg): −34.0
Mean % Change FIBR (fibrinogen; gemcabene 900 mg): −3.2%
Mean Change FIBR (fibrinogen; gemcabene 900 mg): −12.9
Mean Final FIBR (fibrinogen; gemcabene 900 mg): 435.9
Fibrinogen Change, LS Mean (SE) (fibrinogen; gemcabene 900 mg monotherapy): −13.0 (22.9)
Mean % Change FIBR (fibrinogen; gemcabene at any of the doses): −2.2%
Mean Change FIBR (fibrinogen; gemcabene at any of the doses): −9.8
Mean Final FIBR (fibrinogen; gemcabene at any of the doses): 434.1
IC50 (CYP2A6): > 1500 µM
IC50 (CYP2A6; human, microsomes): > 1500 µM
